One data set concerns MCF-7 (breast cancer). Nature of the data set: Antiproliferative assay, MCF-7. Type of data set: cell-based, human. Conditions: Homo sapiens, MCF7; MCF-7 breast cancer cells; read-out: Antiproliferative activity IC50 ± SEM, MCF-7. From the text: (§1) The dose–response experiments established the IC50 values for the new compounds. The given findings were obtained from at least two distinct studies, each comprising three repeats per concentration. Appendix A (SI File) provides experimental details.[38,39]
(§2) The MTT assay[43] was utilized to assess the antiproliferative effects of compounds 10a–l on four human cancer cell lines: HT-29 (colon cancer), Panc-1 (pancreatic cancer), A-549 (lung cancer), and MCF-7 (breast cancer). […]
(§3) 4.2.2. Assay for antiproliferative effect
(§4) To explore the antiproliferative potential of compounds propidium iodide fluorescence assay was performed using different cell lines such as Panc-1 (pancreas cancer cell line), MCF-7 (breast cancer cell line), HT-29 (colon cancer cell line) and A-549 (epithelial cancer cell line), respectively. To calculate the total nuclear DNA, a fluorescent dye (propidium iodide, PI) is used which can attach to the DNA, thus offering a quick and precise technique. PI cannot pass through the cell membrane and its signal intensity can be considered as directly proportional to quantity of cellular DNA. Cells whose cell membranes are damaged or have changed permeability are counted as dead ones. The assay was performed by seeding the cells of different cell lines at a density of 3000-7500 cells/well (in 200μl medium) in culture plates followed by incubation for 24h at 37 °C in humidified 5%CO2/95% air atmospheric conditions. The medium was removed; the compounds were added to the plates at 10 μM concentrations (in 0.1% DMSO) in triplicates, followed by incubation for 48h. DMSO (0.1%) was used as control. After incubation, medium was removed followed by the addition of PI (25 μl, 50μg/mL in water/medium) to each well of the plates. At - 80 °C, the plates were allowed to freeze for 24 h, followed by thawing at 25 °C. A fluorometer (Polar-Star BMG Tech) was used to record the readings at excitation and emission wavelengths of 530 and 620 nm for each well. The percentage cytotoxicity of compounds was calculated using […]
(§5) Where ATC= Absorbance of treated cells and AC= Absorbance of control. Erlotinib was used as positive control in the assay. […]

The test system of another data set is A-549 (lung cancer). Nature of the data set: Antiproliferative assay, A-549. Type of data set: cell-based. Conditions: Homo sapiens, A549; A-549 lung cancer cells; read-out: Antiproliferative activity IC50 ± SEM, A-549.
Text: as §1, §2, §3, §4, §5

Data set [1] relates to four human cancer cell lines (A-549, MCF-7, Panc-1, HT-29). Nature of the data set: Antiproliferative assay, average over four cancer cell lines. Type of data set: cell-based. Conditions: for GI50: Homo sapiens, average IC50 across A-549, MCF-7, Panc-1, HT-29; for Reduction in antiproliferative potency relative to 10k (GI50): less potent than 10k. The protocol:
The given findings were obtained from at least two distinct studies, each comprising three repeats per concentration. Appendix A (SI File) provides experimental details.[38,39] […]
as §3
To explore the antiproliferative potential of compounds propidium iodide fluorescence assay was performed using different cell lines such as Panc-1 (pancreas cancer cell line), MCF-7 (breast […]
respectively. To calculate the total nuclear DNA, a fluorescent dye (propidium iodide, PI) is used which can attach to the DNA, thus offering a quick and precise technique. PI cannot pass through the cell membrane and its signal intensity can be considered as directly proportional to quantity of cellular DNA. Cells whose cell membranes are damaged or have changed permeability are counted as dead ones. The assay was performed by seeding the cells of different cell lines at a density of 3000-7500 cells/well (in 200μl medium) in culture plates followed by incubation for 24h at 37 °C […]
The medium was removed; the compounds were added to the plates at 10 μM concentrations (in 0.1% DMSO) in triplicates, followed by incubation for 48h. DMSO (0.1%) was used as control. After incubation, medium was removed followed by the addition of PI (25 μl, 50μg/mL in water/medium) to each well of the plates. At - 80 °C, the plates were allowed to freeze for 24 h, followed by thawing at 25 °C. A fluorometer (Polar-Star BMG Tech) was used to record the readings at excitation and emission wavelengths of 530 and 620 nm for each well. The percentage cytotoxicity of compounds was calculated using […]
Where ATC= Absorbance of treated cells and AC= Absorbance of control. […]
positive control in the assay. […]

Another data set relates to HT-29 (colon cancer). Nature of the data set: Antiproliferative assay, HT-29. Type of data set: cell-based. Conditions: Homo sapiens; HT-29 colon cancer cells; read-out: Antiproliferative activity IC50 ± SEM, HT-29.
Text: as §1, §2, §3, §4, §5

In data set [2] the test system is Panc-1 (pancreatic cancer). Nature of the data set: Antiproliferative assay, Panc-1. It is filed as cell-based. Particulars: Homo sapiens; Panc-1 pancreatic cancer cells; read-out: Antiproliferative activity IC50 ± SEM, Panc-1.
Text: as §1, §2, §3, §4, §5

A short description of data set [3]: Cell viability assay (MTT) on normal MCF-10A cells. It is filed as cell-based. Particulars: human, MCF-10A mammary gland epithelial cells (normal cell line), MCF-10A normal cells, four-day incubation. The protocol:
The impact of novel compounds 10a–l on the viability of a normal human cell line, specifically human mammary gland epithelial cells (MCF-10A), was assessed to ascertain the safety of the newly synthesized compounds. The MTT test was employed to assess the cell viability of the novel compounds after a four-day incubation with MCF-10A cells.[29,37] Refer to Appendix A for more experimental details.
The effect of new compounds 10a–l on the viability of a normal human cell line, namely human mammary gland epithelial cells (MCF-10A), was evaluated to determine the safety of the newly synthesized compounds.
4.2. Biological evaluation
4.2.1 Cell Viability assay (MTT assay)
MTT assay was performed to investigate the effect of the synthesized compounds on mammary epithelial cells (MCF-10A). The cells were propagated in medium consisting of Ham's F-12 medium/ Dulbecco's modified Eagle's medium (DMEM) (1:1) supplemented with 10% foetal calf serum, 2 mM glutamine, insulin (10 μg/mL), hydrocortisone (500 ng/mL) and epidermal growth factor (20 ng/mL). Trypsin ethylenediamine tetra acetic acid (EDTA) was used to passage the cells after every 2-3 days. 96-well flat-bottomed cell culture plates were used to seed the cells at a density of 10^4 cells mL-1. The medium was aspirated from all the wells of culture plates after 24 h followed by the addition of synthesized compounds (in 200 μL medium to yield a final concentration of 0.1% (v/v) dimethyl sulfoxide) into individual wells of the plates. Four wells were designated to a single compound. The plates were allowed to incubate at 37°C for 96 h. Afterwards, the medium was aspirated and 3-[4,5-dimethylthiazol-2-yl]-2,5-diphenyltetrazolium bromide (MTT) (0.4 mg/mL) in medium was added to each well and subsequently incubated for 3 h. The medium was aspirated and 150 μL dimethyl sulfoxide (DMSO) was added to each well. The plates were vortexed followed by the measurement of absorbance at 540 nm on a microplate reader. […]

The next data set deals with caspase-3. Nature of the data set: Caspase-3 activation assay in MCF-7 cells. Type of data set: cell-based, human. Conditions: vs untreated control.
The subject of the next data set is caspase-9. Nature of the data set: Caspase-9 activation assay in MCF-7 cells. It is filed as cell-based, human. The protocol: (§6) Compounds10k and 10l were tested as caspases-3, 8, 9, Bax and p53 activators and as down-regulators of the anti-apoptotic protein Bcl2 against the MCF-7 breast cancer cell line.[41] Appendix A gives more details.
(§7) To elucidate the apoptotic processes of compounds 10k and 10l, whether via the intrinsic or extrinsic pathway, their impacts on caspase-8 and caspase-9 were evaluated. […] This signifies the activation of both intrinsic and extrinsic pathways (Table 5).
(§8) 4.2.6. Caspase-8/9 activation assay
(§9) Cells were obtained from American Type Culture Collection, cells were grown in RPMI 1640 containing 10% fetal bovine serum at 37°C, stimulated with the compounds to be tested for caspase 8/9, and lysed with Cell Extraction Buffer. This lysate was diluted in Standard Diluent Buffer over the range of the assay and measured for human active caspase-8/9 content. (Cells are Plated in a density of 1.2 – 1.8 × 10,000 cells/well in a volume of 100µl complete growth medium + 100 ul of the tested compound per well in a 96-well plate for 24 hours before the enzyme assay). The absorbance of each microwell was read on a spectro-photometer at 450 nm. […]

Another data set relates to caspase-8. Nature of the data set: Caspase-8 activation assay in MCF-7 cells. It is filed as cell-based, human. The protocol:
as §6, §7, §8, §9

What is called IC50 is the point on the concentration scale where inhibition reaches its midpoint. As usually defined, the GI50 is the concentration giving 50% growth inhibition. Low values mean greater sensitivity of the cells, high ones lower sensitivity of the cells. Usually viability stands for the share of living cells, or the viability signal relative to a control. Read a low viability as more harm to the cells. Take `N#Cc1c(-c2ccccc2)nc(SCc2nc(-c3ccccc3)no2)[nH]c1=O` [Compound 10a, 2-(((3-Phenyl-1,2,4-oxadiazol-5-yl)methyl)thio)-6-oxo-4-phenyl-1,6-dihydropyrimidine-5-carbonitrile]: the IC50 with MCF-7 (breast cancer) turned out to be 40 ± 3 nM; in the data set with A-549 (lung cancer), 44 ± 3 nM; in the data set on HT-29 (colon cancer), 45 ± 3 nM; in [2], 42 ± 3 nM. In data set [1], this compound yielded a GI50 of 43 nM. Moreover, the viability at 96 h, 50 µM in data set [3] stood at 91%.

For the compound `N#Cc1c(-c2ccccc2)nc(SCc2nc(-c3ccc(Cl)cc3)no2)[nH]c1=O` [Compound 10b, 2-(((3-(4-Chlorophenyl)-1,2,4-oxadiazol-5-yl)methyl)thio)-6-oxo-4-phenyl-1,6-dihydropyrimidine-5-carbonitrile], the concentration for half-maximal inhibition (IC50) in the data set with MCF-7 (breast cancer) stood at 61 ± 5 nM; in the data set with A-549 (lung cancer), 65 ± 5 nM; in the data set with HT-29 (colon cancer), 66 ± 5 nM; in data set [2], 61 ± 5 nM. The compound further showed a GI50 in data set [1] of 63 nM. For the same compound, the “Reduction in antiproliferative potency relative to 10k (GI50)” value in data set [1] amounted to 2.9 fold. The same compound gave a viability at 96 h, 50 µM in data set [3] of 90%.

In the case of `COc1ccc(-c2noc(CSc3nc(-c4ccccc4)c(C#N)c(=O)[nH]3)n2)cc1` [Compound 10c, 2-(((3-(4-Methoxyphenyl)-1,2,4-oxadiazol-5-yl)methyl)thio)-6-oxo-4-phenyl-1,6-dihydropyrimidine-5-carbonitrile], the IC50 with MCF-7 (breast cancer) is 44 ± 3 nM; in the data set on A-549 (lung cancer), 49 ± 3 nM; in the data set on HT-29 (colon cancer) it was 51 ± 3 nM; in data set [2] it was 44 ± 3 nM. The GI50 in data set [1] stood at 47 nM. Besides, the viability at 96 h, 50 µM in data set [3] was found to be 92%.

As for `N#Cc1c(-c2ccncc2)nc(SCc2nc(-c3ccccc3)no2)[nH]c1=O` [Compound 10d, 2-(((3-Phenyl-1,2,4-oxadiazol-5-yl)methyl)thio)-6-oxo-4-(pyridin-4-yl)-1,6-dihydropyrimidine-5-carbonitrile], the half-inhibitory concentration (IC50) stood at 51 ± 4 nM in the data set on MCF-7 (breast cancer), 56 ± 4 nM in the data set on A-549 (lung cancer), 57 ± 4 nM in the data set on HT-29 (colon cancer) and 53 ± 4 nM in data set [2]. Further, the GI50 in [1] stood at 54 nM. The viability at 96 h, 50 µM in data set [3] stood at 89%.

`COc1ccc(-c2noc(CSc3nc(-c4ccncc4)c(C#N)c(=O)[nH]3)n2)cc1` [Compound 10f, 2-(((3-(4-Methoxyphenyl)-1,2,4-oxadiazol-5-yl)methyl)thio)-6-oxo-4-(pyridin-4-yl)-1,6-dihydropyrimidine-5-carbonitrile]: the IC50 in the data set with MCF-7 (breast cancer) stood at 49 ± 3 nM; in the data set on A-549 (lung cancer), 52 ± 4 nM; with HT-29 (colon cancer), 54 ± 4 nM; in [2] it was 50 ± 4 nM. The compound further displayed a GI50 in data set [1] of 51 nM. The compound further gave a viability at 96 h, 50 µM in [3] of 91%.

`N#Cc1c(-c2ccc(Cl)cc2)nc(SCc2nc(-c3ccccc3)no2)[nH]c1=O` [Compound 10g, 2-(((3-Phenyl-1,2,4-oxadiazol-5-yl)methyl)thio)-4-(4-chlorophenyl)-6-oxo-1,6-dihydropyrimidine-5-carbonitrile]: the 50% inhibitory concentration (IC50) in the data set on MCF-7 (breast cancer) was 35 ± 2 nM; with A-549 (lung cancer), 39 ± 2 nM; in the data set on HT-29 (colon cancer) it was 40 ± 2 nM; in data set [2], 37 ± 2 nM. It took 38 nM to inhibit growth in data set [1] by half (GI50). In data set [3], the viability at 96 h, 50 µM worked out at 90%.

Regarding `COc1ccc(-c2nc(SCc3nc(-c4ccccc4)no3)[nH]c(=O)c2C#N)cc1` [Compound 10j, 2-(((3-Phenyl-1,2,4-oxadiazol-5-yl)methyl)thio)-4-(4-methoxyphenyl)-6-oxo-1,6-dihydropyrimidine-5-carbonitrile], the IC50 came out at 65 ± 5 nM in the data set on MCF-7 (breast cancer), 69 ± 5 nM in the data set with A-549 (lung cancer), 70 ± 5 nM in the data set on HT-29 (colon cancer) and 68 ± 5 nM in data set [2]. Further, the GI50 in [1] amounted to 68 nM. The “Reduction in antiproliferative potency relative to 10k (GI50)” value in [1] turned out to be 3 fold. In data set [3], this compound returned a viability at 96 h, 50 µM of 89%.

With `C#Cc1cccc(Nc2ncnc3cc(OCCOC)c(OCCOC)cc23)c1` [Erlotinib, reference compound], the IC50 in the data set on MCF-7 (breast cancer) is 40 ± 3 nM; in the data set on A-549 (lung cancer), 30 ± 3 nM; in the data set on HT-29 (colon cancer), 30 ± 3 nM; in [2], 30 ± 3 nM.

As for `CN[C@@H]1C[C@H]2O[C@@](C)([C@@H]1OC)n1c3ccccc3c3c4c(c5c6ccccc6n2c5c31)C(=O)NC4` [Staurosporine, reference compound], the “Caspase-3 Fold change” value in the data set with caspase-3 turned out to be 7.00 fold. For the same compound, the “Caspase-9 Conc” value in the data set on caspase-9 is 20 ± 1 ng/mL. For the same compound, the “Caspase-9 Fold change” value with caspase-9 (vs untreated control) was 20 fold. Further, the “Caspase-8 Conc” value in the data set on caspase-8 worked out at 1.90 ± 0.10 ng/mL. Also, in the data set on caspase-8 (vs untreated control), the “Caspase-8 Fold change” value was 19.00 fold.

(Values after article PMC12530851, “Design, synthesis, and apoptotic antiproliferative activity of novel dihydropyrimidine-5-carbonitrile/1,2,4-oxadiazole hybrids as dual EGFR/VEGFR-2 inhibitors endowed with antioxidant activity” (RSC Advances, 2025).)
